Here are results for 21 compounds from ChEMBL document CHEMBL1144996 (J Med Chem, 2003).

Some targets named below: Carbonic anhydrase 1 (Homo sapiens, UniProt P00915); Carbonic anhydrase 2 (Homo sapiens, UniProt P00918); Carbonic anhydrase 9 (Homo sapiens, UniProt Q16790).

Carbonic anhydrase 1, sequence (P00915 whole entry): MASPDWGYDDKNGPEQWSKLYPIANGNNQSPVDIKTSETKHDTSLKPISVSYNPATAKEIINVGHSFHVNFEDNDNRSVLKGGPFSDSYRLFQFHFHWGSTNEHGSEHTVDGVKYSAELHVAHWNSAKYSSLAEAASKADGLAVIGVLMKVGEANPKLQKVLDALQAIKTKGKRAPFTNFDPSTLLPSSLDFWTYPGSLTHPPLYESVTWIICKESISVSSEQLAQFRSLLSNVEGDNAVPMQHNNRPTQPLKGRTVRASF

As a reminder, the Ki is the equilibrium dissociation constant of an inhibitor or competing ligand from its target. As for `NS(=O)(=O)Oc1c(Cl)cc(Cl)cc1Cl`, the Ki was 454 nM at Carbonic anhydrase 1, 138 nM on Carbonic anhydrase 2 and 37 nM on Carbonic anhydrase 9.

For the compound `N#Cc1ccc(OS(N)(=O)=O)cc1`, the figures for the inhibition constant (Ki) on Carbonic anhydrase 1, at Carbonic anhydrase 2 and on Carbonic anhydrase 9 were 480 nM, 149 nM and 41 nM, respectively.

As for `NS(=O)(=O)Oc1ccc(Oc2ccccc2)cc1`, the Ki on Carbonic anhydrase 1 is 115 nM; at Carbonic anhydrase 2 it was 98 nM; on Carbonic anhydrase 9, 51 nM.

Take `NS(=O)(=O)Oc1ccc(-c2ccccc2)cc1`: the Ki at Carbonic anhydrase 1 was 113 nM; on Carbonic anhydrase 2, 95 nM; on Carbonic anhydrase 9, 50 nM.

Take `C[C@]12CC[C@@H]3c4ccc(O)cc4CC[C@H]3[C@@H]1CC[C@@H]2OS(N)(=O)=O`: the results for the Ki at Carbonic anhydrase 1, on Carbonic anhydrase 2 and at Carbonic anhydrase 9 were 15 nM, 13 nM and 32 nM, respectively.

In the case of `NS(=O)(=O)Oc1ccc([N+](=O)[O-])cc1`, the Ki on Carbonic anhydrase 1 worked out at 40 nM; on Carbonic anhydrase 2, 1.5 nM; at Carbonic anhydrase 9, 36 nM.

As for `C[C@]12CC[C@@H]3c4ccc(OS(N)(=O)=O)cc4CC[C@H]3[C@@H]1CC[C@@H]2OS(N)(=O)=O`, the Ki is 6 nM on Carbonic anhydrase 1, 5 nM at Carbonic anhydrase 2 and 58 nM at Carbonic anhydrase 9.

Take `Cc1ccc(OS(N)(=O)=O)cc1`: the Ki came out at 3.8 nM at Carbonic anhydrase 1, 1.9 nM at Carbonic anhydrase 2 and 59 nM at Carbonic anhydrase 9.

In the case of `NS(=O)(=O)OCCOc1ccc(-n2ccnc2)cc1`, the Ki at Carbonic anhydrase 1 amounted to 28 nM; at Carbonic anhydrase 2, 23 nM; at Carbonic anhydrase 9, 26 nM.

Consider `CC1(C)OCC(C2OC3OC(C)(C)OC3[C@H]2OS(N)(=O)=O)O1` (some centres not stated), for which the Ki at Carbonic anhydrase 1 is 278 nM; on Carbonic anhydrase 2 it was 15 nM; on Carbonic anhydrase 9, 39 nM.

Regarding `NS(=O)(=O)Oc1c(Cl)c(Cl)c(Cl)c(Cl)c1Cl` [SULFAMIC ACID PENTACHLOROPHENYL ESTER], the Ki at Carbonic anhydrase 1 turned out to be 432 nM; on Carbonic anhydrase 2, 125 nM; at Carbonic anhydrase 9 it was 39 nM.

In the case of `CC(C)(C)c1ccc(OS(N)(=O)=O)cc1`, the Ki on Carbonic anhydrase 1 is 43 nM; at Carbonic anhydrase 2 it was 2.9 nM.

With `NS(=O)(=O)Oc1ccc(Br)cc1`, the values for the Ki on Carbonic anhydrase 1 and at Carbonic anhydrase 9 were 7.3 nM and 19 nM, respectively.

As to `COc1ccc(OS(N)(=O)=O)cc1`, the Ki on Carbonic anhydrase 1 was determined as 33 nM; at Carbonic anhydrase 2, 1.6 nM; at Carbonic anhydrase 9 it was 34 nM.

On to `C[C@]12CCC(OS(N)(=O)=O)CC1=CCC1C2CC[C@]2(C)C(=O)CCC12` (some centres not stated), for which the values for the Ki at Carbonic anhydrase 1, at Carbonic anhydrase 2 and on Carbonic anhydrase 9 were 31 nM, 27 nM and 44 nM, respectively.

`NS(=O)(=O)Oc1ccc(Cl)cc1`: the figures for the Ki on Carbonic anhydrase 1 and at Carbonic anhydrase 9 were 4.6 nM and 18 nM, respectively.

For `CC(=O)Nc1ccc(OS(N)(=O)=O)cc1`, the results for the Ki at Carbonic anhydrase 1, on Carbonic anhydrase 2 and on Carbonic anhydrase 9 were 37 nM, 18 nM and 45 nM, respectively.

In the case of `NS(=O)(=O)Oc1ccccc1` [PHENYLSULFAMATE], the results for the Ki on Carbonic anhydrase 1 and on Carbonic anhydrase 9 were 2.1 nM and 63 nM, respectively.

Consider `CC1(C)O[C@@H]2[C@H](O1)[C@H]1OC(C)(C)OC1O[C@@H]2COS(N)(=O)=O` (some centres not stated), for which the inhibitory constant (Ki) on Carbonic anhydrase 1 came to 315 nM; at Carbonic anhydrase 2, 29 nM; on Carbonic anhydrase 9 it was 32 nM.

As for `NS(=O)(=O)Oc1ccc(I)cc1`, the values for the Ki on Carbonic anhydrase 1, on Carbonic anhydrase 2 and on Carbonic anhydrase 9 were 9.5 nM, 3.8 nM and 23 nM, respectively.

On to `C[C@]12CC[C@@H]3c4ccc(OS(N)(=O)=O)cc4CC[C@H]3[C@@H]1CCC2=O` [EMATE], for which the Ki on Carbonic anhydrase 1 is 37 nM.
